Data from patent US6870069B2, “Phenyloxyaniline derivatives” (National Institute of Radiological Sciences, priority 2003, dated 2005).

Legend:
[1] = target: T1, peripheral benzodiazepine receptor (PBR) (Rattus norvegicus, UniProt P16257); assay: In vitro affinity to PBR: displacement of [11C]DAA1106 binding on rat brain sections (autoradiography, olfactory bulb ROI); conditions: for IC50: [11C]DAA1106 1 nM, rat brain sections, olfactory bulb, 37° C. 30 minutes, probit method
T1 construct: Sagittal sections of the rat were prepared using Crystat microtome; from tissue; host or cells: rat brain sagittal sections (ROI: olfactory bulb)
Method: Under anesthetization with ether, male Sprague-Dawley rats (250 to 300 g; n=4) were slaughtered and the brain was quickly cut and frozen in dry ice. Sagittal sections of the rat were prepared using Crystat microtome (MICROM HM560, Carl Zeiss GmbH, Germany). The sections were previously incubated in a 50 mM Tris buffer (pH=7.4) for 30 minutes. After that, the sections were taken out and again incubated at 37° C. for 30 minutes in 50 mM Tris buffer (pH=7.4) containing each of the following reagents at the same time.
After completion of the incubation, the section was taken out and dipped in an ice-cooled Tris buffer for 2 minutes twice. The section was dipped in ice-cooled distilled water and then dried. […] A region of interest (ROI) was defined as an olfactory bulb and radioactivity was expressed in terms of a photo-stimulated-luminescence (PSL)/mm^2 region. Specific binding of [^11C]DAA1106 in the presence of DAA1106, PK11156, FMDAA1106 and FEDAA1106 of various concentrations was determined and IC50 (nM) of those reagents was calculated by a probit method.

[2] = target: T2, central benzodiazepine receptor (CBR); assay: Affinity to CBR using [11C]flumazenil, a selective ligand for CBR; format: binding, rat; conditions: [11C]flumazenil
T2 construct: IC50 CBR; other: [11C]flumazenil
Method: (§1) On the other hand, affinity of FMDAA1106 and FEDAA1106 to central benzodiazepine receptor (CBR) was determined (Table 1) using [^11C]flumazenil which is a selective ligand for CBR. As a result, affinity of FEDAA1106 and FMDAA1106 to CBR was not less than 10 μM and was about 10,000-fold weaker than the affinity of PBR. […] Incidentally, partition coefficients (log P) of the two ligands were measured by an octanol/water (pH 7.4) partition method.

[3] = Partition coefficient (log P) by octanol/water (pH 7.4) partition method; format: physicochemical
Method: as §1

[4] = test system: central benzodiazepine receptor (CBR); assay: Affinity to CBR using [11C]flumazenil, a selective ligand for CBR; format: binding, rat; conditions: CBR versus PBR selectivity
Method: as §1

Structure (SMILES)	IC50 [1] [nM]	IC50 [2] [nM]	logP [3]	affinity to PBR as compared with DAA1106 ([1]; relative to DAA1106)	affinity to PBR as compared with PK11195 ([1]; relative to PK11195)	affinity to CBR weaker than the affinity of PBR [4]
COc1ccc(OC)c(CN(C(C)=O)c2cc(F)ccc2Oc2ccccc2)c1 [DAA1106, N-(2,5-dimethoxybenzyl)-N-(5-fluoro-2-phenoxyphenyl)acetamide, reference compound]	1.62	> 10000	3.65	–	–	–
COc1ccc(OCCF)c(CN(C(C)=O)c2cc(F)ccc2Oc2ccccc2)c1 [FEDAA1106, N-[2-(2-fluoro)ethyl-5-methoxybenzyl]-N-(5-fluoro-2-phenoxyphenyl)acetamide]	0.77	> 10000	3.81	two-fold higher affinity	about ten-fold stronger affinity	about 10,000 fold
CCC(C)N(C)C(=O)c1cc2ccccc2c(-c2ccccc2Cl)n1 (stereo not shown) [PK11195, N-methyl-N-(1-methylpropyl)-1-(2-chlorophenyl)-isoquinoline-3-carboxamide, reference compound]	–	> 10000	–	–	–	–
